Laboratory results published in patent publication US20200188441A1, “METHODS AND COMPOSITIONS FOR REDUCING CORNEAL ENDOTHELIAL CELL LOSS” (The Schepens Eye Research Institute, Inc., priority 2017, published 2020).
No end group written: not given here.

What was measured:
[1] = test system: human corneal endothelial cells; test: Corneal endothelial wound healing in vitro; type: cell-based; details: VIP 10^−9, 10^−7 and 10^−6 M; 12 and 24 hours after incubation; vs control
From the text: FIG. 9 is a graph showing that VIP treatment of human corneal endothelial cells accelerates corneal endothelial wound healing in vitro in a dose-dependent manner Percentage of healed endothelial area compared to baseline in VIP-treated groups and in control. […] Error bars indicate mean±SEM. Each group consists of n=9, and data from one out of two independent experiments is shown.

[2] = test system: corneal endothelial cells; test: IFNγ- and TNFα-mediated corneal endothelial cell apoptosis in corneal cups ex vivo (TUNEL); type: cell-based, C57BL/6; details: VIP 10^−6 M; 18 hours of incubation
Procedure: FIG. 10A is a set of micrographs and FIG. 10B is a graph showing that VIP suppresses IFNγ- and TNFα-mediated corneal endothelial cell apoptosis. FIG. 10A: Representative confocal micrographs showing nave C57BL/6 corneal cups incubated with either IFNγ or TNFα with or without VIP (10^−12, 10^−9, 10^−6 M). After 18 hours of incubation, corneas were stained for zonula occluden-1 (ZO-1, green) and terminal deoxynucleotidyl transferase-mediated dUTP nick-end labeling assay (TUNEL, red) to visualize endothelial cell-to-cell junctions and apoptotic cells, respectively. The scale bars are equal to 100 μm (magnification ×40). FIG. 10B: Bar diagram showing the percentages of apoptotic (TUNEL-positive) corneal endothelial cells incubated ex vivo with either IFNγ or TNFα with different doses of VIP. […] Data are presented as mean±SEM. Each group consists of n=5 corneas and data from one out of two independent experiments is shown.

corneal graft [3] = test: Murine model of syngeneic corneal transplantation with endothelial injury; type: in vivo
From the text: FIG. 11A: Representative slit-lamp images showing corneas at week 2-6 post-transplantation (magnification ×25). […] FIG. 11C: Representative confocal micrographs of central area of transplanted corneas isolated from VIP-treated mice and the control groups at week 2, 4 and 6 after transplantation. To visualize corneal endothelial cell-to-cell junctions, corneas were stained with zonula occluden-1 (ZO-1, green). The scale bars are equal to 100 μm (magnification ×40). FIG. 11D: Bar diagram showing central endothelial cell density in VIP-treated corneas and controls at 2, 4 and 6 weeks post-transplantation. Data are presented as mean±SEM. Each group consists of n=6 corneas, and data from one out of two independent experiments is shown.

corneal graft [4] = test: High-risk allogeneic corneal transplantation; type: in vivo, mice
From the text: FIGS. 12A-D are graphs and images showing the effect of VIP treatment on high-risk corneal transplant survival. Animals underwent high-risk allogeneic corneal transplantation and received treatment with VIP at 1, 3, 5, 7 and 9 days after transplantation. […] Each group consists of n=14. FIG. 12C: Representative confocal micrographs of central area of transplanted corneas in VIP-treated mice and in controls at 1, 2 and 8 weeks post-transplantation. Corneal endothelial cell-to-cell junction were stained and visualized with zonula occluden-1 (ZO-1, green). The scale bars are equal to 100 μm (magnification ×40). […] Horizontal line represents the CEnC density of nave age-matched C57BL/6 corneas. Each group consists of n=5 corneas. All data are presented as mean±SEM, and data from one out of two independent experiments is shown.

With “VIP: vasoactive intestinal polypeptide, a neuropeptide; exemplary human sequence SEQ ID NO: 5 (HSDAVFTDNYTRLRKQMAVKKYLNSILN; ends and bridges not checked; UniProt P01282 125-152, looked up)” the “wound healing (percentage of healed endothelial area compared to baseline)” value [1] was “significantly enhanced wound healing”, the “IFNγ-mediated corneal endothelial cell apoptosis (TUNEL-positive cells)” value [2] was “significantly suppresses” and the “TNFα-mediated corneal endothelial cell apoptosis (TUNEL-positive cells)” value [2] was “significantly suppresses”. For the same substance, the “corneal endothelial wound healing” value (corneal graft [3]; syngeneic transplantation with endothelial injury) was “enhances corneal endothelial wound healing”, the graft opacity scores (corneal graft [3]; week 2 to 6 post-transplantation, vs control) was “significantly decreased” and the graft opacity scores (corneal graft [4]; 4 to 8 weeks post-transplantation, VIP at 1, 3, 5, 7 and 9 days after transplantation) was “significantly decreased”. For the same substance, the “central CEnC density” value (corneal graft [4]; 8 weeks post-transplantation, vs control) was “significantly higher”, the “hazard ratio (graft survival, VIP-treated vs controls)” value (corneal graft [4]; 8 weeks, 95% CI 0.04-0.26, Log rank test) was 0.10 and the graft survival (corneal graft [4]; weekly examination for 8 weeks, controls 0%) was 85%.
